Laboratory results published in patent US9221816B2, “2-oxo-2,3-dihydro-indoles for the treatment of CNS disorders” (Hoffmann-La Roche Inc., priority 2012, dated 2015).

test system: L-687,414-induced hyperlocomotion; assay: L-687,414-induced hyperlocomotion (Digiscan locomotor activity); format: in vivo, mouse; settings: dose ip 30, at the same time as s.c. 50 mg/kg L-687,414; % inhibition of horizontal activity; mice
Experimental: The authors described that hyperlocomotion induced by L-687,414 was inhibited by a series of known antipsychotic drugs. […] These findings predict antipsychotic activity for the present compounds, making them useful for the treatment of schizophrenia and other disorders as described above.
The described compounds of formula I and I-1 reduce L-687,414-induced hyperlocomotion. This was assessed by using a computerized Digiscan 16 Animal Activity Monitoring System (Omnitech Electronics, Columbus, Ohio) to quantify locomotor activity. Animals were kept under a 12 h light/dark cycle and experiments were performed during the light period. Each activity monitoring chamber consisted of a Plexiglas box (41×41×28 cm; W×L×H) with sawdust bedding on the floor surrounded by invisible horizontal and vertical infrared sensor beams. The test boxes were divided by a Plexiglas cross providing each mouse with 20×20 cm of moving space. Cages were connected to a Digiscan Analyzer linked to a computer that constantly collected the beam status information. Records of photocell beam interruptions for individual animals were taken every 5 min over the duration of the experimental session and the sum of the first 6 periods was used as the final parameter. Compounds were administered either p.o. 15 min before a s.c. injection of 50 mg/kg of L-687,414, or i.p. at the same time as a s.c. injection of 50 mg/kg of L-687,414. Mice were then transferred from their home cage to the recording chambers for a 15-min habituation phase allowing free exploration of the new environment. Horizontal activity was then recorded for a 30-min time period. The % inhibition of L-687,414-induced hyperlocomotion was calculated according to the equation: ((Veh+L-687,414 horizontal activity−drug+L-687,414 horizontal activity)/Veh+L-687,414 horizontal activity)×100
ID50 values, defined as doses of each compound producing 50% inhibition of L-687,414-induced hyperlocomotion, were calculated by linear regression analysis of a dose-response data using an Excel-based computer-fitting program.
As data was not presupposed to be normally distributed, groups treated with test compounds were statistically compared with the control (vehicle-treated) group using one-tailed Mann Whitney U tests. In statistics, the Mann-Whitney U test (also called the Mann-Whitney-Wilcoxon (MWW) or Wilcoxon rank-sum test) is a non-parametric statistical hypothesis test for assessing whether one of two samples of independent observations tends to have larger values than the other. It is one of the most well-known non-parametric significance tests. […] P values given in table 1 are one-tailed since only decreases in locomotion were expected and tested for (Mann, H. B., Whitney, D. R. (1947), “On a Test of Whether one of Two Random Variables is Stochastically Larger than the Other”, Annals of Mathematical Statistics, 18 (1), 50-60).

Row | SMILES | Inhibition, ip
1 | Cc1cc(C(=O)Nc2ccc3c(c2)NC(=O)C3(C)C)ccn1 [Example 1, N-(3,3-Dimethyl-2-oxo-2,3-dihydro-1H-indol-6-yl)-2-methyl-isonicotinamide] | 81.6%
2 | CN1C(=O)C2(CCCC2)c2ccc(NC(=O)c3ccncc3)cc21 [Example 3, N-(1′-Methyl-2′-oxospiro[cyclopentane-1,3′-indoline]-6′-yl)isonicotinamide] | 83.3%
3 | Cc1cc(C(=O)Nc2ccc3c(c2)N(C)C(=O)C3(C)C)ccn1 [Example 5, 2-Methyl-N-(1,3,3-trimethyl-2-oxoindolin-6-yl)isonicotinamide] | 77.2%
4 | CN1C(=O)C(C)(C)c2cnc(NC(=O)c3ccncc3)cc21 [Example 6, N-(1,3,3-Trimethyl-2-oxo-2,3-dihydro-1H-pyrrolo[3,2-c]pyridin-6-yl)isonicotinamide] | 64.5%
5 | CCN1C(=O)C(C)(C)c2ccc(NC(=O)c3ccncc3)cc21 [Example 7, N-(1-ethyl-3,3-dimethyl-2-oxoindolin-6-yl)isonicotinamide] | 90.4%
6 | Cc1cc(C(=O)Nc2ccc3c(c2)N(C)C(=O)C3(C)C)nc(C)n1 [Example 8, 2,6-Dimethyl-N-(1,3,3-trimethyl-2-oxoindolin-6-yl)pyrimidine-4-carboxamide] | 70.7%
7 | COc1ccc(C(=O)Nc2ccc3c(c2)N(C)C(=O)C3(C)C)cn1 [Example 10, 6-Methoxy-N-(1,3,3-trimethyl-2-oxoindolin-6-yl)nicotinamide] | 62.2%
8 | Cc1ncc(C(=O)Nc2ccc3c(c2)N(C)C(=O)C3(C)C)c(C)n1 [Example 12, 2,4-Dimethyl-N-(1,3,3-trimethyl-2-oxoindolin-6-yl)pyrimidine-5-carboxamide] | 69.2%
9 | CC1(C)C(=O)N(C2CC2)c2cc(NC(=O)c3ccncc3)ccc21 [Example 14, N-(1-Cyclopropyl-3,3-dimethyl-2-oxoindolin-6-yl)isonicotinamide] | 66.5%
10 | COc1cnccc1C(=O)Nc1ccc2c(c1)N(C)C(=O)C2(C)C [Example 15, 3-Methoxy-N-(1,3,3-trimethyl-2-oxoindolin-6-yl)isonicotinamide] | 56.3%
11 | Cc1cc(C(=O)Nc2ccc3c(c2)N(C2CC2)C(=O)C3(C)C)ccn1 [Example 17, N-(1-Cyclopropyl-3,3-dimethyl-2-oxoindolin-6-yl)-2-methylisonicotinamide] | 79.3%
12 | CC1(C)C(=O)N(C2CC2)c2cc(NC(=O)c3cccnc3)ccc21 [Example 18, N-(1-Cyclopropyl-3,3-dimethyl-2-oxoindolin-6-yl)nicotinamide] | 68.8%
13 | CN1C(=O)C(C)(C)c2cc(F)c(NC(=O)c3ccncc3)cc21 [Example 20, N-(5-Fluoro-1,3,3-trimethyl-2-oxoindolin-6-yl)isonicotinamide] | 87.3%
14 | CCN1C(=O)C(C)(C)c2ccc(NC(=O)c3cccnc3)cc21 [Example 21, N-(1-Ethyl-3,3-dimethyl-2-oxoindolin-6-yl)nicotinamide] | 76.6%
15 | CN1C(=O)C(C)(C)c2cc(F)c(NC(=O)c3cccnc3)cc21 [Example 24, N-(5-fluoro-1,3,3-trimethyl-2-oxoindolin-6-yl)nicotinamide] | 80.0%
16 | Cc1cc(C(=O)Nc2ccc3c(c2F)N(C)C(=O)C3(C)C)ccn1 [Example 28, N-(7-fluoro-1,3,3-trimethyl-2-oxoindolin-6-yl)-2-methylisonicotinamide] | 74.7%
17 | Cc1cc(C(=O)Nc2ccc3c(c2)N(C)C(=O)C3(C)C)c(F)cn1 [Example 33, 5-Fluoro-2-methyl-N-(1,3,3-trimethyl-2-oxoindolin-6-yl)isonicotinamide] | 78.6%

Row | SMILES | Inhibition, ip
18 | Cc1cc(C(=O)Nc2cc3c(cc2Cl)C(C)(C)C(=O)N3C)ccn1 [Example 35, N-(5-Chloro-1,3,3-trimethyl-2-oxoindolin-6-yl)-2-methylisonicotinamide] | 57.3%
19 | CC1(C)C(=O)N(C2CC2)c2cc(NC(=O)c3ccncc3)c(F)cc21 [Example 36, N-(1-cyclopropyl-5-fluoro-3,3-dimethyl-2-oxoindolin-6-yl)isonicotinamide] | 89.0%
20 | CC(C)N1C(=O)C(C)(C)c2ccc(NC(=O)c3cccnc3)cc21 [Example 37, N-(1-Isopropyl-3,3-dimethyl-2-oxoindolin-6-yl)nicotinamide] | 64.0%
21 | CC1(C)C(=O)N(C2CC2)c2cc(NC(=O)c3cccnc3)c(F)cc21 [Example 38, N-(1-Cyclopropyl-5-fluoro-3,3-dimethyl-2-oxoindolin-6-yl)nicotinamide] | 60.8%
22 | CCN1C(=O)C(C)(C)c2ccc(NC(=O)c3ccnc(C)c3)cc21 [Example 39, N-(1-Ethyl-3,3-dimethyl-2-oxoindolin-6-yl)-2-methylisonicotinamide] | 58.6%
23 | CCN1C(=O)C(C)(C)c2ccc(NC(=O)c3ccncc3Cl)cc21 [Example 40, 3-Chloro-N-(1-ethyl-3,3-dimethyl-2-oxoindolin-6-yl)isonicotinamide] | 72.9%
24 | CCN1C(=O)C(C)(C)c2ccc(NC(=O)c3ccncc3F)cc21 [Example 41, N-(1-ethyl-3,3-dimethyl-2-oxoindolin-6-yl)-3-fluoroisonicotinamide] | 85.2%
25 | CN1C(=O)C(C)(C)c2ccc(NC(=O)c3ccc(F)cc3)cc21 [Example 43, 4-Fluoro-N-(1,3,3-trimethyl-2-oxoindolin-6-yl)benzamide] | 88.0%
26 | Cc1cc(C(=O)Nc2cc3c(cc2F)C(C)(C)C(=O)N3C2CC2)ccn1 [Example 46, N-(1-Cyclopropyl-5-fluoro-3,3-dimethyl-2-oxoindolin-6-yl)-2-methylisonicotinamide] | 72.7%
27 | CN1C(=O)C(C)(C)c2cc(F)c(NC(=O)c3ccncc3Cl)cc21 [Example 51, 3-Chloro-N-(5-fluoro-1,3,3-trimethyl-2-oxoindolin-6-yl)isonicotinamide] | 80.1%
28 | CC1(C)C(=O)N(CC2CC2)c2cc(NC(=O)c3ccncc3)ccc21 [Example 52, N-(1-(Cyclopropylmethyl)-3,3-dimethyl-2-oxoindolin-6-yl)isonicotinamide] | 78.8%
29 | CC1(C)C(=O)N(CC2CC2)c2cc(NC(=O)c3ccncc3F)ccc21 [Example 53, N-(1-(Cyclopropylmethyl)-3,3-dimethyl-2-oxoindolin-6-yl)-3-fluoroisonicotinamide] | 89.9%
30 | Cc1cc(C(=O)Nc2ccc3c(c2)N(C2CC2)C(=O)C3(C)C)c(F)cn1 [Example 54, N-(1-Cyclopropyl-3,3-dimethyl-2-oxoindolin-6-yl)-5-fluoro-2-methylisonicotinamide] | 55.6%
31 | O=C(Nc1ccc2c(c1)N(C1CC1)C(=O)C21CC1)c1ccncc1 [Example 55, N-(1′-Cyclopropyl-2′-oxospiro[cyclopropane-1,3′-indoline]-6′-yl)isonicotinamide] | 61.7%
32 | O=C(Nc1ccc2c(c1)N(C1CC1)C(=O)C21CC1)c1ccncc1F [Example 57, N-(1′-Cyclopropyl-2′-oxospiro[cyclopropane-1,3′-indoline]-6′-yl)-3-fluoroisonicotinamide] | 60.5%
33 | CC1(C)C(=O)N(C2COC2)c2cc(NC(=O)c3ccncc3F)ccc21 [Example 59] | 88.6%

same assay, conditions: p.o. 15 min before s.c. 50 mg/kg L-687,414; dose producing 50% inhibition of hyperlocomotion; mice

Row | SMILES | ID50 po
34 | CN1C(=O)C(C)(C)c2ccc(NC(=O)c3ccncc3)cc21 [Example 2, N-(1,3,3-Trimethyl-2-oxo-2,3-dihydro-1H-indol-6-yl)-isonicotinamide] | 2.06 mg/kg
35 | CN1C(=O)C(C)(C)c2ccc(NC(=O)c3cccnc3)cc21 [Example 4, N-(1,3,3-Trimethyl-2-oxoindolin-6-yl)nicotinamide] | 1.84 mg/kg
36 | Cc1ccncc1C(=O)Nc1ccc2c(c1)N(C)C(=O)C2(C)C [Example 9, 4-Methyl-N-(1,3,3-trimethyl-2-oxoindolin-6-yl)nicotinamide] | 6.6 mg/kg
37 | CN1C(=O)C(C)(C)c2ccc(NC(=O)c3ccncc3Cl)cc21 [Example 27, 3-Chloro-N-(1,3,3-trimethyl-2-oxoindolin-6-yl)isonicotinamide] | 1.95 mg/kg
38 | CC1(C)C(=O)N(C2CC2)c2cc(NC(=O)c3ccncc3F)ccc21 [Example 31, N-(1-Cyclopropyl-3,3-dimethyl-2-oxoindolin-6-yl)-3-fluoroisonicotinamide] | 1 mg/kg
